How the values were obtained:
[1] = system: splenic CD8+ T cells; experiment: IFNγ ELISpot recall assay of splenic CD8+ T cells with DCs pulsed with heat-inactivated bacteria or peptides; format: cell-based, mice; conditions: for memory Tc1 immune response (IFNγ spots) to BM-DC infected with EH isolates: Example 2, FIG. 10, splenic CD8+ T cells after gavage + CTX, ELISPOT at 24 hrs; for specific TC1 immune responses after restimulation with E. hirae strains loaded onto DC: Example 12, FIG. 27D, prime-boost exposure + CTX
Method: FIG. 9. Experimental immunization protocols to elucidate the immunogenicity of EH peptides. […] 5 days after the first oral gavage, mice are treated with CTX. One week post-CTX, CD8+ T cells are isolated from spleen. These CD8+ T cells are incubated with dendritic cells (DCs) pulsed with 20 μg/ml of peptides (during 1 hour) or with heat-inactivated bacteria (during 6 hours). Inactivation of bacteria consists in incubation at 65° C. during 2 hours. After 24 hours of culture, ELIspot of IFNγ is performed.
FIG. 10. Cross-reactivity between the two E. hirae 708 and 13144 species for CTL splenic reactivity. Number of IFNγ spot representing IFNγ-secreting CD8+ T cells after co-culture with DCs pre-incubated with or without heat-inactivated bacteria (708, 13144, EH17 and L. plantarum).
FIG. 13. Peptides from group 7 containing the TMP1 and TMP2 epitopes activate CD8+ T cells from spleen of mice immunized against E. hirae 13144. Number of IFNγ spot, representing IFNγ-secreting CD8+ T cells, after incubation with DCs pulsed with 13 different group of peptide (Table 6). Just group n° 1 (A) and group n° 7 (B) are shown. (C, E) Number of IFNγ spot, representing IFNγ-secreting CD8+ T cells, after incubation with DCs pulsed with 4 peptides belong to group n° 7 (in table 7). (D) Sequence alignment of TMP1 and TMP2 of EH10815 (SEQ ID Nos: 228 and 229 respectively) compared to EH13144 (fragments of SEQ ID NO: 1) at the level of immunogenic peptides. Amino acid sequence […] corresponds to SEQ ID No: 13. Amino acid sequence […] corresponds to SEQ ID No: 217. Amino acid sequence […] corresponds to SEQ ID Nos: 14. Amino acid sequence AlIEFIKGL corresponds to SEQ ID No: 218. (E) In vitro reactivity of splenic CTL in a recall response to TMP1 and TMP2 as well as Group7 after in vivo immunization with other strains of EH.
A and C. Experimental setting. […] D-E. Ex vivo recall assays. […] Each dot represents one mouse.

[2] = system: MCA205 sarcoma; experiment: Prophylactic vaccination with pulsed DCs followed by MCA205 challenge; format: in vivo, C57BL/6 mice; conditions: poly I:C-activated BM-DC pulsed with peptides (20 μg/ml) or heat-inactivated bacteria, s.c. twice 10 days apart
Method: FIG. 16. Protocol of immunization with DC pulsed with TMP peptides. After DCs differentiation (with GM-CSF and IL-4 during 6 days), we incubated them with poly I:C (10 μg/ml) overnight before the addition of peptide (1 hour) or heat-inactivated bacteria (6 hours). These DCs are injected subcutaneous on right flank at day 0 and 10. […] We constitute 4 groups, one group without DCs, one group with DCs pulsed with 20 μg/ml of irrelevant peptides (gr1) or TMP peptides or 13144 heat-inactivated bacteria. Mean tumor sizes over time (A), each mouse tumor kinetics for each group (B), and the detailed comparison in between groups at the two last time points before sacrifice for MCA205 are shown (C), each dot representing one mouse. MC38 related data are not shown.
FIG. 17. […] Tumor growth of MCA205 in mice vaccinated with DCs pulsed with gr1 peptides, TMP peptides and E. hirae 13144. (A) Mean±SEM of tumor sizes at different kinetics. (B) Tumor growth kinetics for each individual group of 5-10 mice. (C) Tumor sizes and statistical differences at time of sacrifice.
A-B. Prophylactic vaccinations. […] C-D. Therapeutic settings.
After DCs differentiation, these DCs were activated with poly I:C (10 μg/ml, Invivogen) overnight before infection with heat-inactivated (2 h at 65° C.) bacterial strains (MOI 10) or pulsed with peptides (20 μg/ml, peptide 2.0). […]

[3] = system: autologous CD4+ T cells or CD8+ T cells; experiment: Blood T cell responses of breast cancer patients to monocytes stimulated with bacteria (IFN-γ, IL-10 release); format: cell-based, human
Method: FIG. 22. T cell responses against commensals in blood from breast cancer patients at diagnosis priori to chemotherapy. Autologous monocytes harvested from breast cancer patients were stimulated with distinct bacterial spp. and then incubated with autologous CD4+ T cells or CD8+ T cells to monitor IFN-γ and IL-10 release. (A) TH1/Tc1/Tr1 immune responses to E. hirae 13144. […] (B) TH1/Tc1/Tr1 immune responses to E. coli or TCR cross-linking. BC women display memory T cell responses against E. coli and respond to TCR cross-linking.

[4] = system: E. gallinarum; experiment: Phage transmission from E. hirae to E. gallinarum in small intestine enteroids; set-up: species or system Enterococcus gallinarum; conditions: 1:1 ratio E. hirae / E. gallinarum on enteroids
Text: . […] Also refer to FIG. 39.
Temperate bacteriophages are bacterial viruses that transfer virulence, antimicrobial resistance genes, and immunogenic sequences to new bacterial hosts (Weinbauer, 2004). The TMP protein, which contains a variable number of tandem repeats with highly conserved tryptophan and phenylalanine residues at fixed positions is encoded by the genome of Siphoviridae phages (Belcaid et al., 2011; Piuri and Hatfull, 2006). To analyze the capacity of E. hirae 13144 to contagiously disseminate the phage TMP sequence, we performed culturomic analyses of the ileal content from C57BL/6 mice subjected to oral gavage with E. hirae 13144 and systemic CTX therapy (FIG. 30C). […] Of note, none of the 90 colonies (mostly of E. gallinarum) isolated from naive mice harbored the TMP sequence (FIG. 39). Moreover, CTX plays a role in eliminating the E. gallinarum, allowing the niching and/or colonization of E. hirae in the small intestine, as shown in vitro in enteroid systems or in PCR of the ileal content (FIG. 30G and not shown). Importantly, incubation of small intestine enteroids with a balanced 1:1 ratio of E. hirae or E. gallinarum harbouring or not the phage respectively, lead to the transmission of the infectious/lytic phage to E. gallinarum by E. hirae in 9% of colonies at 6 hrs and 26% at 20 hrs (FIG. 30G).

[5] = system: pTh17 cells; experiment: Induction of pTh17 cells in secondary lymphoid organs of CTX-treated animals; format: in vivo
Text: The reasons for these differences were however unknown, and the inventors pursued their research to identify the factor(s) responsible for the immunogenic properties of the murine strain EH13144 and the human clones IGR4, IGR7 and IGR11, in order to derive new molecules or microorganisms useful in the treatment of cancer.

[6] = system: TMP1-specific CD8+ T cells

Enterococcus hirae strain 13144 [Peptide 13144]
memory Tc1 immune response (IFNγ spots) to BM-DC infected with EH isolates [1]: could induce memory Tc1 immune responses
specific TC1 immune responses after restimulation with E. hirae strains loaded onto DC [1]: triggered specific TC1 immune responses
protection against MCA205 tumor challenge [2]: reduced tumor growth
BC patients who developed IL-10 producing memory CD4+ T cell responses ([3]; FIG. 22A): 52%
BC patients with CD4+ T cells exhibiting no reactivity to pulsed monocytes ([3]; FIG. 22A): 32%
BC patients at diagnosis exhibiting a blood TH1/Tc1 immune response ([3]; prior to chemotherapy): Less than 20%
colonies of E. gallinarum with transmitted phage ([4]; 6 hrs): 9%
colonies of E. gallinarum with transmitted phage ([4]; 20 hrs): 26%
capacity to induce pTh17 cells in secondary lymphoid organs [5]: significant capacity to induce pTh17 cells
splenic CD8+ T cells recognizing the TMP1 peptide ([6]; day 12 following CTX/E. hirae 13144 regimen, FIG. 27F): Up to 1%
enrichment of TMP1-specific CTLs in the TC1 subset harboring CCR9 ([6]; spleens from naive and tumor bearers, tumor draining lymph nodes): 3-5 fold

Enterococcus hirae 708 [Peptide 708, reference compound]
memory Tc1 immune response (IFNγ spots) to BM-DC infected with EH isolates [1]: could induce memory Tc1 immune responses
specific TC1 immune responses after restimulation with E. hirae strains loaded onto DC [1]: failed to do so
TC1 response against TMP1 in mice gavaged with the strain (IFNγ ELISpot) ([1]; Example 12, FIG. 27E): unable to do so
